For 15 compounds, GI50 and IC50 results are on record in US8143255B2, “Heteroalkyl linked pyrimidine derivatives” (S*BIO Pte Ltd., priority 2005, dated 2012).

Assay [1] has as its system Colo205 (colon adenocarcinoma cell line). The assay is described as follows: Cell-based proliferation assay, Colo205. The conditions noted are these: Homo sapiens, COLO 205; Colo205 cells, 96 h treatment. Here is the method:
(§1) Human cancer cell lines HL60 (acute myeloid leukemia cell line), Colo205 (colon adenocarcinoma cell line), HEL92.1.7 (erythroleukemia cell line), MV4-11 (acute myeloid leukemia cell line) and DU145 (metastatic prostate cancer cell line) were obtained from ATCC. They were cultivated in the media according to the ATCC work instructions. Colo205 and DU145 cells were seeded in 96-wells plate 5000 cells per cell and 1000 cells per well respectively. HEL92.1.7 and MV4-11 cells were seeded at 6000 cells per well while HL60 cells were seeded at 8000 cells per well in 96 well plate. The plates were incubated at 37° C., 5% CO2, for 24 h. Cells were treated with compounds at various concentrations for 96 h. Cell growth was then monitored using Celltiter96 Aqueous One Solution Cell Proliferation Assay from Promega (Madison Wis.). Dose response curves were plotted to determine GI50 values for the compounds using XL-fit (ID Business Solution, Emeryville, Calif.).

The subject of assay [2] is MV4-11 (acute myeloid leukemia cell line). The assay can be described thus: Cell-based proliferation assay, MV4-11. As to conditions: Homo sapiens; MV4-11 cells, 96 h treatment. As for the experimental part:
as §1

The target of a further assay is T1, CDK2/CyclinA (Homo sapiens, UniProt P24941).
T1 construct: purchased Invitrogen PV3267
The assay can be described thus: In vitro kinase activity assay (PKLight), CDK2/Cyclin A. The assay is classed as biochemical. The conditions noted are these: recombinant CDK2/Cyclin A, RbING substrate, 0.5 μM ATP, 2 hr. Here is the method: (§2) All assays were carried out in 384-well white microtiter plates using the PKLight assay system from Cambrex (East rutherford, N.J.). This assay platform is essentially a luminometdc assay for the detection of ATP in the reaction using a luciferase-coupled reaction. For CDK2/Cyclin A assay, the reaction mixture consisted of the following components in 25 μL assay buffer (50 mM Hepes pH 7.5, 10 mM MgCl2, 5 mM MnCl2, 5 mM BGP, 1 mM DTT, 0.1 mM sodium orthovanadate), 1.4 μg/mL of CDK2/Cyclin A complex, 0.5 μM of RbING substrate (Invitrogen, Cat # PV2939) and 0.5 μM of ATP. The compounds were tested at 8 concentrations prepared from 4-fold serial dilution starting at 10 μM. The reaction was incubated at room temperature for 2 hr. 13 μL of PKLight ATP detection reagent was added and the reaction was incubated for 10 min. Luminescence signals were detected on a multi-label plate reader (Victor^2 V 1420, Perkin-Elmer). The other kinase assays were identical except for the following differences in reagents. For FLT3 assays, the reaction contained 2.0 μg/mL FLT3 enzyme, 5 μM of poly(Glu,Tyr) substrate (Sigma, Cat # P0275) and 4 μM of ATP. For JAK2 assays, the reaction contained 0.6 μg/mL of JAK2 enzyme, 2 μM of poly(Glu,Ala,Tyr) substrate (Sigma, Cat # P3899) and 0.2 μM of ATP. […] The analytical software, Prism 4.0 (GraphPad Software Pte Ltd) was used to generate IC50 values from the data.

The target in the next assay is T2, JAK2 (Homo sapiens, UniProt O60674).
T2 construct: purchased Invitrogen PV4210
T2 sequence (O60674 whole entry): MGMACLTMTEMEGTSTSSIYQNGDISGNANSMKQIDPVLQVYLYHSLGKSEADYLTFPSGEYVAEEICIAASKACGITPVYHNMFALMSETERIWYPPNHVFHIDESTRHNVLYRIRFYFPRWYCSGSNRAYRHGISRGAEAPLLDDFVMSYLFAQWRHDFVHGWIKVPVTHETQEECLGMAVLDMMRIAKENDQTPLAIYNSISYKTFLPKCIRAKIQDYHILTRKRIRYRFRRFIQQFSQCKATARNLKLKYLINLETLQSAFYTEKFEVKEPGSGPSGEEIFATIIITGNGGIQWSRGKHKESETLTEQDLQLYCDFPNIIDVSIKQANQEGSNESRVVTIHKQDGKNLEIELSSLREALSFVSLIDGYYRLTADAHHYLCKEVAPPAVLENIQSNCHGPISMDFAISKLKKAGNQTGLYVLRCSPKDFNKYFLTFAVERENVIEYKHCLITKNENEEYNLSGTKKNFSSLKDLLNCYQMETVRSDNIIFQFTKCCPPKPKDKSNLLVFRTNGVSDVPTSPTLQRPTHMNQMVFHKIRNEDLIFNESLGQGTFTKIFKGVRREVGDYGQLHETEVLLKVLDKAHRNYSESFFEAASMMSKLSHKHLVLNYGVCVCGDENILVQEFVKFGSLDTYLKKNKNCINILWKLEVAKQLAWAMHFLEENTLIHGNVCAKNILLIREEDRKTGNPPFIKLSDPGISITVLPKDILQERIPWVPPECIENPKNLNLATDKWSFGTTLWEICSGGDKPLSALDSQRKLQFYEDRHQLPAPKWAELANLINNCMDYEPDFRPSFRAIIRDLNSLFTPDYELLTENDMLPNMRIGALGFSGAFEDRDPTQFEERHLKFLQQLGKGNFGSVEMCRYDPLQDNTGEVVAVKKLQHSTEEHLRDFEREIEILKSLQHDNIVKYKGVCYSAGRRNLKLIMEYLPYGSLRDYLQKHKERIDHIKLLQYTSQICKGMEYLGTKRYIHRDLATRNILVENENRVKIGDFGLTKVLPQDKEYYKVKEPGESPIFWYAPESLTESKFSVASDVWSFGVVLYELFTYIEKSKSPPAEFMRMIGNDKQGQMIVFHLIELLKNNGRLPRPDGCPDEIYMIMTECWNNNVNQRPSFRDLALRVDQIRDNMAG
The assay can be described thus: In vitro kinase activity assay (PKLight), JAK2. In kind it is biochemical. As to conditions: recombinant JAK2, poly(Glu,Ala,Tyr) substrate, 0.2 μM ATP. As for the experimental part:
as §2

Assay [3] concerns HL60 (acute myeloid leukemia cell line). The assay can be described thus: Cell-based proliferation assay, HL60. The conditions noted are these: Homo sapiens, HL-60; HL60 cells, 96 h treatment. Here is the method:
as §1

Assay [4] relates to DU145 (metastatic prostate cancer cell line). The assay is described as follows: Cell-based proliferation assay, DU145. As to conditions: Homo sapiens, DU-145; DU145 cells, 96 h treatment. As for the experimental part: as §1
The target in another assay is T3, FLT3 (Homo sapiens, UniProt P36888).
T3 construct: purchased Invitrogen PV3182
T3 sequence (P36888 27-993): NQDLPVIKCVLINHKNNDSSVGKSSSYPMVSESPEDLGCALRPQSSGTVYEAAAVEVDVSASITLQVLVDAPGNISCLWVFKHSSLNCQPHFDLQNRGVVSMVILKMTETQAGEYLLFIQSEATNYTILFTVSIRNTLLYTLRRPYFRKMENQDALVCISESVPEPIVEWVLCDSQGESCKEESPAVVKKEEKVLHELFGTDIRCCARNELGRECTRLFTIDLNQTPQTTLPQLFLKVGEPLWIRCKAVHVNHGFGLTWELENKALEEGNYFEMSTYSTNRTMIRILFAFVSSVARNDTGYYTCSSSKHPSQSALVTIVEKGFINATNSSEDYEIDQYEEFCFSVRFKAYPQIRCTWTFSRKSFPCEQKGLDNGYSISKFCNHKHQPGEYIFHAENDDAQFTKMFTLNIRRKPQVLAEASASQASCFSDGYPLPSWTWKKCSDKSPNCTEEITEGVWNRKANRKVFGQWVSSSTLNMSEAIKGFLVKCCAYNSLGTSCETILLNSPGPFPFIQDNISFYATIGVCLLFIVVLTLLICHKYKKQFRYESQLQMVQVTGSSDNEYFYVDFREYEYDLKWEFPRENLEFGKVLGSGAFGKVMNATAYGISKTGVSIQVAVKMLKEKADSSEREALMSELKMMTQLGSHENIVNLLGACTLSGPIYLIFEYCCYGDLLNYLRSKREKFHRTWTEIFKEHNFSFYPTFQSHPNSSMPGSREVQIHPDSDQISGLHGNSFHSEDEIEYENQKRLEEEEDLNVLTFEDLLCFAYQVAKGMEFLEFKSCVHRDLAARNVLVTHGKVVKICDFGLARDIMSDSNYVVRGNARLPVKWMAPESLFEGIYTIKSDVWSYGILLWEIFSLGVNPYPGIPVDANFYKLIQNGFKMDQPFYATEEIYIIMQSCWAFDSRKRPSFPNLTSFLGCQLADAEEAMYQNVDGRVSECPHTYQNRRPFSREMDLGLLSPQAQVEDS
The assay is described as follows: In vitro kinase activity assay (PKLight), FLT3. In kind it is biochemical. The conditions noted are these: recombinant FLT3, poly(Glu,Tyr) substrate, 4 μM ATP. Here is the method: The recombinant enzymes (CDK2/CyclinA, FLT3, JAK2 and JAK2 V617F) were purchased from Invitrogen (Cat # PV3267, 3182, 4210 and 4347 respectively). All assays were carried out in 384-well white microtiter plates using the PKLight assay system from Cambrex (East rutherford, N.J.). This assay platform is essentially a luminometdc assay for the detection of ATP in the reaction using a luciferase-coupled reaction. For CDK2/Cyclin A assay, the reaction mixture consisted of the following components in 25 μL assay buffer (50 mM Hepes pH 7.5, 10 mM MgCl2, 5 mM MnCl2, 5 mM BGP, 1 mM DTT, 0.1 mM sodium orthovanadate), 1.4 μg/mL of CDK2/Cyclin A complex, 0.5 μM of RbING substrate (Invitrogen, Cat # PV2939) and 0.5 μM of ATP. The compounds were tested at 8 concentrations prepared from 4-fold serial dilution starting at 10 μM. The reaction was incubated at room temperature for 2 hr. 13 μL of PKLight ATP detection reagent was added and the reaction was incubated for 10 min. Luminescence signals were detected on a multi-label plate reader (Victor^2 V 1420, Perkin-Elmer). The other kinase assays were identical except for the following differences in reagents. For FLT3 assays, the reaction contained 2.0 μg/mL FLT3 enzyme, 5 μM of poly(Glu,Tyr) substrate (Sigma, Cat # P0275) and 4 μM of ATP. For JAK2 assays, the reaction contained 0.6 μg/mL of JAK2 enzyme, 2 μM of poly(Glu,Ala,Tyr) substrate (Sigma, Cat # P3899) and 0.2 μM of ATP. For JAK2 V617F mutant assays, the reaction contained 8.0 μg/mL of JAK2 mutant enzyme, 2 μM of poly(Glu,Ala,Tyr) substrate (Sigma, Cat # P3899) and 0.2 μM of ATP. The analytical software, Prism 4.0 (GraphPad Software Pte Ltd) was used to generate IC50 values from the data. […] IC50 values are shown below in Table 3.

The subject of assay [5] is HEL92.1.7 (erythroleukemia cell line). The assay can be described thus: Cell-based proliferation assay, HEL92.1.7. As to conditions: Homo sapiens, HEL 92.1.7; HEL92.1.7 cells, 96 h treatment. Here is the method:
as §1

As for `O=C1CC/C=C/COCc2cccc(c2)Nc2nccc(n2)-c2cccc(c2)N1` [Compound 4], the GI50 (in general, the concentration giving 50% growth inhibition) in assay [1] was above 5 µM; in assay [2], 1 to 5 µM; in assay [3], above 5 µM; in assay [4] it was above 5 µM; in assay [5] it was above 5 µM. The IC50 (as a rule, the concentration at which inhibition is half-maximal) is 1 to 5 µM on CDK2/CyclinA, above 5 µM at JAK2 and above 5 µM at FLT3.

`CN1C/C=C/CCOc2cccc(c2)-c2ccnc(n2)Nc2ccc(OCCN3CCOCC3)c(c2)C1` [Compound 13]: the GI50 in assay [1] was at most 1 µM; in assay [2], above 5 µM; in assay [3], at most 1 µM. Further, the IC50 at CDK2/CyclinA, at JAK2 and at FLT3 was at most 1 µM in each case.

For the compound `CN1C/C=C/CC(=O)Nc2cccc(c2)-c2ccnc(n2)Nc2cccc(c2)C1` [Compound 14], the GI50 was above 5 µM in assay [1], 1 to 5 µM in assay [2], above 5 µM in assay [3] and above 5 µM in assay [5]. Besides, the figures for the IC50 on CDK2/CyclinA, on JAK2 and at FLT3 were 1 to 5 µM, above 5 µM and 1 to 5 µM, respectively.

`C1=C/CNCc2cccc(c2)Nc2nccc(n2)-c2cccc(c2)OCC/1` [Compound 22]: the IC50 at CDK2/CyclinA and on FLT3 was at most 1 µM each time.

Regarding `C1=C/CN(C2CC2)Cc2cccc(c2)Nc2nccc(n2)-c2cccc(c2)OCC/1` [Compound 25], the IC50 on CDK2/CyclinA, at JAK2 and on FLT3 was at most 1 µM in each case.

In the case of `Cc1cnc2nc1-c1cccc(c1)OCC/C=C/CN(C)Cc1cccc(c1)N2` [Compound 27], the GI50 was 1 to 5 µM in assay [1]; at most 1 µM in assay [2]; at most 1 µM in assay [3]; 1 to 5 µM in assay [4]; at most 1 µM in assay [5]. Besides, the IC50 on CDK2/CyclinA, on JAK2 and at FLT3 was at most 1 µM throughout.

Turning to `C1=C\CNCc2cccc(c2)Nc2nccc(n2)-c2cccc(c2)OCC/1` [Compound 29], the IC50 at CDK2/CyclinA and on FLT3 was at most 1 µM throughout.

Turning to `CN1C/C=C/CCOc2cc(ccc2N)-c2ccnc(n2)Nc2cccc(c2)C1` [Compound 38], the figures for the GI50 in assay [1] and in assay [3] were 1 to 5 µM and at most 1 µM, respectively. The IC50 at CDK2/CyclinA, on JAK2 and at FLT3 was at most 1 µM each time.

Take `CN1C/C=C/CCOc2cccc(c2)-c2ccnc(n2)Nc2cc(ccn2)C1` [Compound 44]: the concentration for 50% growth inhibition (GI50) in assay [2], in assay [3] and in assay [5] was 1 to 5 µM each time. Further, the figures for the IC50 at CDK2/CyclinA, on JAK2 and at FLT3 were 1 to 5 µM, above 5 µM and above 5 µM, respectively.

In the case of `CN1C/C=C/CCOc2cccc(c2)-c2ccnc(n2)Nc2ccc(OCCN3CCCCC3)c(c2)C1` [Compound 46], the GI50 in assay [2], in assay [3] and in assay [5] was at most 1 µM each time. In addition, the IC50 on CDK2/CyclinA, on JAK2 and at FLT3 was at most 1 µM each time.

For the compound `CN1C/C=C/CCOc2cccc(c2)-c2ccnc(n2)Nc2ccc(OCCn3cncn3)c(c2)C1` [Compound 61], the GI50 in assay [2], in assay [3] and in assay [5] was at most 1 µM throughout. Further, the IC50 on CDK2/CyclinA, at JAK2 and at FLT3 was at most 1 µM in each case.

`CN1C/C=C/COCC2=CC=C(O2)c2ccnc(n2)Nc2cccc(c2)C1` [Compound 62]: the GI50 was 1 to 5 µM in assay [1], at most 1 µM in assay [2], at most 1 µM in assay [3] and 1 to 5 µM in assay [5]. Besides, the IC50 at CDK2/CyclinA, on JAK2 and at FLT3 was at most 1 µM each time.

On to `CCS(=O)(=O)CCOc1ccc2cc1CN(C)C/C=C/CCOc1cccc(c1)-c1ccnc(n1)N2` [Compound 70], for which the GI50 in assay [1], in assay [2], in assay [3] and in assay [5] was at most 1 µM throughout. For the same compound, the IC50 at CDK2/CyclinA, on JAK2 and at FLT3 was at most 1 µM in each case.

Regarding `CN1C/C=C/COCC2=CC=C(S2)c2ccnc(n2)Nc2ccc(OCCN3CCCC3)c(c2)C1` [Compound 74], the GI50 in assay [2], in assay [3] and in assay [5] was at most 1 µM throughout. For the same compound, the IC50 on CDK2/CyclinA, at JAK2 and on FLT3 was at most 1 µM in each case.

In the case of `CN1C/C=C/CCOc2cccc(c2)-c2ccnc(n2)Nc2cc(N)cc(c2)C1` [Compound 81], the GI50 in assay [2], in assay [3] and in assay [5] was at most 1 µM each time. In addition, the IC50 on CDK2/CyclinA, on JAK2 and on FLT3 was at most 1 µM in each case.
